Experiment [1] addresses T1, σ-2 (Rattus norvegicus, UniProt Q5U3Y7).
T1 sequence (Q5U3Y7 1-176): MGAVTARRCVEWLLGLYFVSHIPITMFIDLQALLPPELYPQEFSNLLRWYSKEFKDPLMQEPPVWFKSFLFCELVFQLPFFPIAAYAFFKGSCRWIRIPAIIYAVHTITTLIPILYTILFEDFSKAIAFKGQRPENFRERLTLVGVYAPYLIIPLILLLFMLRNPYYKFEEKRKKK
The experiment is described as follows: Sigma-2 competitive radioligand displacement binding (NIMH PDSP). As to the method:
Sigma-1 and 2 affinity experiments (Ki values) were carried out at the National Institute of Mental Health’s Psychoactive Drug Screening Program (NIMH PDSP, UNC Chapel Hill, NC). Assay details (i.e., competitive radioligand displacement conditions, etc.) are available at https://pdsp.unc.edu/pdspweb/content/PDSP%20Protocols%20II%202013-03-28.pdf (accessed on 23 August 2023). Table 2 below indicates the Ki values determined for all compounds.

Experiment [2] can be described thus: Oxygen Radical Activity Capacity (ORAC) assay. As to conditions: for TEs (Trolox equivalents): slope of sample divided by slope of Trolox, ORAC after 60 min, mean ± SD, n = 3; for antioxidant activities (in words): ORAC; for Slopes: slope of net AUC vs concentration (2.5-50 µM), averaged, n = 3 runs, 60 min. As to the method: Compound antioxidant capacities were determined using the Oxygen Radical Activity Capacity (ORAC) Assay Kit (catalog #ab233473, Abcam, Cambridge, MA, USA) according to the manufacturer’s protocol. Briefly, the Trolox standard (0.2 mM, 50:50 v/v, water: acetone) and each test compound (0.2 mM, 50:50 v/v, water: acetone) were tested at final concentrations ranging from 2.5 µM to 50 µM in the assay. Fluorescein (150 μL) probe solution and 25 μL of Trolox or each test compound were mixed in each well of a black 96-well microplate and incubated at 37 °C for 30 min. […] Trolox equivalents (TE) for the test compounds were obtained by directly dividing the slopes of each sample by the slope of the Trolox from its standard curve (Table 4). […] Curiously, unlike the phenolic Trolox derivatives (i.e., 3, 4, 8, 12, and 20), compound 18′s antioxidant activity can be attributed to the -NH-OH moiety.

In experiment [3] the target is T2, HDAC-6 (Homo sapiens, UniProt Q9UBN7).
T2 sequence (Q9UBN7 1-1215): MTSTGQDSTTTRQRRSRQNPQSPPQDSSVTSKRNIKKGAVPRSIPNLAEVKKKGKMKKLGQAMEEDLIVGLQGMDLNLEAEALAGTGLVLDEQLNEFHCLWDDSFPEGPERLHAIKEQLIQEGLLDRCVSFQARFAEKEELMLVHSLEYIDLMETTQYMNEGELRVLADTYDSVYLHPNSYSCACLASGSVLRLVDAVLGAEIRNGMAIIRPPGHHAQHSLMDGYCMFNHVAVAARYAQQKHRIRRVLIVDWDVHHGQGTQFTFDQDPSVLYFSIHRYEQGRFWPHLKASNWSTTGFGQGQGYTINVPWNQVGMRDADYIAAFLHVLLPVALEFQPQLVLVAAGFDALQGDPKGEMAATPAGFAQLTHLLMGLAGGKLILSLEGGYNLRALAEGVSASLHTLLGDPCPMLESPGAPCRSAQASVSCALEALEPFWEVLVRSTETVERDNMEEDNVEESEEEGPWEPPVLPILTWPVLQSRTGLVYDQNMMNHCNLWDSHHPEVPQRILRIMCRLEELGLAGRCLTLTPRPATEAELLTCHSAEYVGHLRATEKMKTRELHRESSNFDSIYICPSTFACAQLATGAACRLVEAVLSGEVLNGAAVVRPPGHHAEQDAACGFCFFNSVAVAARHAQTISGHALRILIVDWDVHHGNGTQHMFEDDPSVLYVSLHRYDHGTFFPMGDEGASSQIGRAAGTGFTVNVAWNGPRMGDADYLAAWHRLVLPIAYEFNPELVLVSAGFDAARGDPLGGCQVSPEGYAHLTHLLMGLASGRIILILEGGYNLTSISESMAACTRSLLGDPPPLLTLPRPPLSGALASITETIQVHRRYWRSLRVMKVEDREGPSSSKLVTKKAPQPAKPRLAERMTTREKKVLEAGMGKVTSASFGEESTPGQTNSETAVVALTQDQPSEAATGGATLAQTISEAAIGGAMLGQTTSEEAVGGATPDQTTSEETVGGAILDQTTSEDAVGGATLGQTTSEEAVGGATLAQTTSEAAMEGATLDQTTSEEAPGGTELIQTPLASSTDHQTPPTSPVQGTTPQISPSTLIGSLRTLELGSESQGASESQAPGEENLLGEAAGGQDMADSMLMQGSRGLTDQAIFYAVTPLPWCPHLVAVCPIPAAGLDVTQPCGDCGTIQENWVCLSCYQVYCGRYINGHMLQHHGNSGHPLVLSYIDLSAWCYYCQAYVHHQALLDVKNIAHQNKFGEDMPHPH
Kind of experiment: HDAC fluorescence activity assay (Reaction Biology, Howitz conditions). As to conditions: HDAC-6 IC50, fluorogenic acetylated lysine substrate, 10-dose IC50 mode, threefold serial dilutions.

Each structure is given as a SMILES string. Where “and” joins values, the source holds several entries; their conditions need not be identical. Equal entries are not always repeated.

`COC(=O)c1ccc(CNC(=O)Cc2ccccc2)cc1` [Compound 1, Methyl 4-((2-phenylacetamido)methyl) benzoate] registered a Ki in experiment [1] of over 10 µM. For `Cc1c(C)c2c(c(C)c1O)CCC(C)(C(=O)Nc1nc3ccccc3[nH]1)O2` (stereo not shown) [Compound 6, N-(1H-benzo[d]imidazol-2-yl)-6-hydroxy-2,5,7,8-tetramethylchromane-2-carboxamide], the Ki in experiment [1] came to 7.49 µM. As to `Cc1c(C)c2c(c(C)c1O)CCC(C)(C(=O)O)O2` (stereo not shown) [Trolox, 6-hydroxy-2,5,7,8-tetramethylchroman-2-carboxylic acid], the “TEs (Trolox equivalents)” value in experiment [2] was found to be 1.0 TE. Compound `Cc1c(C)c2c(c(C)c1O)CCC(C)(C(=O)Nc1cc3ccccc3cn1)O2` (stereo not shown) [Compound 7, 6-Hydroxy-N-(isoquinolin-3-yl)-2,5,7,8-tetramethylchromane-2-carboxamide] came in with an inhibition constant (Ki) in experiment [1] of 1.5 µM. Take `Cc1c(C)c2c(c(C)c1O)CCC(C)(C(=O)NCc1ccc(S(N)(=O)=O)cc1)O2` (stereo not shown) [Compound 4, 6-Hydroxy-2,5,7,8-tetramethyl-N-(4-sulfamoylbenzyl) chromane-2-carboxamide]: the Ki in experiment [1] was over 10 µM. For the same compound, in experiment [2], the “antioxidant activities (in words)” value is “potent”, the Slopes came out at 155.07 ± 2.39 and the “TEs (Trolox equivalents)” value is reported as 1.28 ± 0.02 TE. In experiment [1], `COC(=O)c1ccc(CNC(=O)C2(C)CCc3c(C)c(O)c(C)c(C)c3O2)cc1` (stereo not shown) [Compound 2, Methyl 4-((6-hydroxy-2,5,7,8-tetramethylchromane-2-carboxamido)methyl)benzoate] displayed a Ki of 7.47 µM.

Compound `Cc1c(C)c2c(c(C)c1O)CCC(C)(C(=O)Nc1ncc[nH]1)O2` (stereo not shown) [Compound 12, 6-Hydroxy-N-(1H-imidazol-2-yl)-2,5,7,8-tetramethylchromane-2-carboxamide] displayed a Ki in experiment [1] of over 10 µM. Moreover, in experiment [2], the “antioxidant activities (in words)” value is on record as “potent”, the Slopes was determined as 151.24 ± 0.30 and the “TEs (Trolox equivalents)” value was found to be 1.25 ± 0.002 TE. `Cc1c(C)c2c(c(C)c1O)CCC(C)(C(=O)Nc1nc3ccccc3o1)O2` (stereo not shown) [Compound 3, N-(Benzo[d]oxazol-2-yl)-6-hydroxy-2,5,7,8-tetramethylchromane-2-carboxamide] gave a Ki in experiment [1] of over 10 µM. Besides, in experiment [2], the “antioxidant activities (in words)” value is “potent”, the Slopes turned out to be 205.61 ± 4.38 and the “TEs (Trolox equivalents)” value amounted to 1.70 ± 0.04 TE. For `Cc1c(C)c2c(c(C)c1O)CCC(C)(C(=O)N1CCN(c3ncccn3)CC1)O2` (stereo not shown) [Compound 14, (6-Hydroxy-2,5,7,8-tetramethylchroman-2-yl)(4-(pyrimidin-2-yl)piperazin-1-yl)methanone], the affinity in experiment [1], expressed as Ki, was 2.49 µM. As to `Cc1c(C)c2c(c(C)c1O)CCC(C)(C(=O)NNC(=O)c1ccc(Cl)cc1)O2` (stereo not shown) [Compound 20, N′-(4-Chlorobenzoyl)-6-hydroxy-2,5,7,8-tetramethylchromane-2-carbohydrazide], in experiment [2], the “antioxidant activities (in words)” value is “potent”, the Slopes stood at 177.86 ± 3.38 and the “TEs (Trolox equivalents)” value was found to be 1.47 ± 0.03 TE.

`Cc1c(C)c2c(c(C)c1O)CCC(C)(C(=O)NCc1ccc(C(=O)NN)cc1)O2` (stereo not shown) [Compound 9, N-(4-(Hydrazinecarbonyl)benzyl)-6-hydroxy-2,5,7,8-tetramethylchromane-2-carboxamide] returned a Ki in experiment [1] of over 10 µM. Consider `Cc1c(C)c2c(c(C)c1O)CCC(C)(C(=O)Nc1cnccn1)O2` (stereo not shown) [Compound 10, 6-Hydroxy-2,5,7,8-tetramethyl-N-(pyrazin-2-yl) chromane-2-carboxamide], for which the affinity in experiment [1], expressed as Ki, was 5.59 µM. Consider `Cc1c(C)c2c(c(C)c1O)CCC(C)(C(=O)NCc1ccc(C(=O)NO)cc1)O2` (stereo not shown) [Compound 8, 6-Hydroxy-N-(4-(hydroxycarbamoyl)benzyl)-2,5,7,8-tetramethylchromane-2-carboxamide], for which the Ki in experiment [1] is over 10 µM. Further, in experiment [2], the “antioxidant activities (in words)” value was “potent”; the Slopes was 232.42 ± 8.98; the “TEs (Trolox equivalents)” value was 1.92 TE and 1.92 ± 0.07 TE. Further, the IC50 in experiment [3] was 17 nM and 17.3 nM.

As to `Cc1nc(NC(=O)C2(C)CCc3c(C)c(O)c(C)c(C)c3O2)sc1C` (stereo not shown) [Compound 11, N-(4,5-Dimethylthiazol-2-yl)-6-hydroxy-2,5,7,8-tetramethylchromane-2-carboxamide], the Ki in experiment [1] was over 10 µM. `Cc1cc(NC(=O)C2(C)CCc3c(C)c(O)c(C)c(C)c3O2)no1` (stereo not shown) [Compound 13, 6-Hydroxy-2,5,7,8-tetramethyl-N-(5-methylisoxazol-3-yl)chromane-2-carboxamide] gave a Ki in experiment [1] of 6.86 µM.

Take `Cc1c(C)c2c(c(C)c1O)CCC(C)(C(=O)NCc1ccc3c(c1)OCO3)O2` (stereo not shown) [Compound 15, N-(Benzo[d][1,3]dioxol-5-ylmethyl)-6-hydroxy-2,5,7,8-tetramethylchromane-2-carboxamide]: the affinity in experiment [1] corresponds to a Ki of 6.98 µM. Regarding `NNC(=O)c1ccc(CNC(=O)Cc2ccccc2)cc1` [Compound 5, N-(4-(Hydrazinecarbonyl)benzyl)-2-phenylacetamide], the Ki in experiment [1] was over 10 µM. Consider `O=C(Cc1ccccc1)NCc1ccc(C(=O)NO)cc1` [Compound 18, N-Hydroxy-4-((2-phenylacetamido)methyl)benzamide], for which, in experiment [2], the “antioxidant activities (in words)” value is reported as “potent”, the Slopes came to 137.45 ± 1.88 and the “TEs (Trolox equivalents)” value was found to be 1.13 ± 0.02 TE. Also, the IC50 in experiment [3] is 77 nM and 77.9 nM. The compound `NS(=O)(=O)c1ccc(CNC(=O)Cc2ccccc2)cc1` [Compound 16, 2-Phenyl-N-(4-sulfamoylbenzyl) acetamide] had a Ki in experiment [1] of over 10 µM.

Source of the values: publication PMC10607876, “Phenylacetyl-/Trolox- Amides: Synthesis, Sigma-1, HDAC-6, and Antioxidant Activities” (International Journal of Molecular Sciences, 2023).
